Measured values as given in ChEMBL document CHEMBL1128442, “8-Substituted O6-benzylguanine, substituted 6(4)-(benzyloxy)pyrimidine, and related derivatives as inactivators of human O6-alkylguanine-DNA alkyltransferase” (J Med Chem, 1995).

What was measured:
[1] = molecular target: T1, Methylated-DNA--protein-cysteine methyltransferase (Homo sapiens) (UniProt P16455); settings: HT-29
T1 sequence (whole entry): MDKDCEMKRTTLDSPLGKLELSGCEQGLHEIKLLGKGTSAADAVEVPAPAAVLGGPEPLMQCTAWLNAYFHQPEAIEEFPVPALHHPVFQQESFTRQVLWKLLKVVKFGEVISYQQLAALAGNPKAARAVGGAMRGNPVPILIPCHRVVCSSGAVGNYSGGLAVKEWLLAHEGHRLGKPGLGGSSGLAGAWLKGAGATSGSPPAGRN
Description: AGT-inactivating activity was determined by 50% inactivation in HT-29 cell free extract upon incubation for 30 min

[2] = molecular target: T1, Methylated-DNA--protein-cysteine methyltransferase (Homo sapiens); settings: HT-29; remark: listed apart in the source
Description: AGT-inactivating activity was determined by 50% inactivation in HT-29 cells upon incubation for 4 h

Cc1nc(N)nc(OCc2ccccc2)c1[N+](=O)[O-]
ED50 [1]: 0.4 µM | ED50 [2]: 0.06 µM

Nc1nc(N)c(N)c(OCc2ccccc2)n1
ED50 [1]: 0.4 µM | ED50 [2]: 0.3 µM

Cc1nc2[nH]c(N)nc(OCc3ccccc3)c-2n1
ED50 [1]: 0.3 µM | ED50 [2]: 0.1 µM

Nc1nc(OCc2ccccc2)c2[nH]c(C(F)(F)F)nc2n1
ED50 [1]: 0.4 µM | ED50 [2]: 0.25 µM

Oc1nc(OCc2ccccc2)c2[nH]c(O)nc2n1
ED50 [1]: 25 µM | ED50 [2]: 45 µM

Nc1nc(N)c(Br)c(OCc2ccccc2)n1
ED50 [1]: 2 µM | ED50 [2]: 0.8 µM

Nc1cc(OCc2ccccc2)nc(N)n1
ED50 [1]: 15 µM | ED50 [2]: 5 µM

Nc1nc(N)c(N=O)c(OCc2ccccc2)n1
ED50 [1]: 0.06 µM | ED50 [2]: 0.02 µM

Nc1ncnc(OCc2ccccc2)c1[N+](=O)[O-]
ED50 [1]: 28 µM | ED50 [2]: 8 µM

CN(C)c1nc(OCc2ccccc2)c2[nH]cnc2n1
ED50 [1]: 200 µM | ED50 [2]: 110 µM

Oc1nc(OCc2ccccc2)c2[nH]cnc2n1
ED50 [1]: 60 µM | ED50 [2]: 35 µM

Nc1nc(N)nc(OCc2ccccc2)n1
ED50 [1]: 4 µM | ED50 [2]: 1 µM

CNc1nc(OCc2ccccc2)c2[nH]cnc2n1
ED50 [1]: 160 µM | ED50 [2]: 60 µM

Nc1nc(OCc2ccccc2)c2[nH]c(Br)nc2n1
ED50 [1]: 0.08 µM | ED50 [2]: 0.06 µM

Fc1nc(OCc2ccccc2)c2[nH]cnc2n1
ED50 [1]: 48 µM | ED50 [2]: 12 µM

Nc1nc(OCc2ccccc2)c2[nH]nnc2n1
ED50 [1]: 0.07 µM | ED50 [2]: 0.06 µM

CC(=O)Nc1nc(OCc2ccccc2)c2[nH]c(O)nc2n1
ED50 [1]: 65 µM | ED50 [2]: 11 µM

Nc1ncc([N+](=O)[O-])c(OCc2ccccc2)n1
ED50 [1]: 0.4 µM | ED50 [2]: 0.05 µM

Nc1nc(OCc2ccccc2)c2[nH]c(N)nc2n1
ED50 [1]: 0.7 µM | ED50 [2]: 2 µM

Nc1nc(OCc2ccccc2)c2[nH]c(O)nc2n1
ED50 [1]: 0.3 µM | ED50 [2]: 0.15 µM
